From patent US8044018B2, “Reagents and methods for smooth muscle therapies” (Arizona Board of Regents, priority 2008, dated 2011) come the findings set out here.

The subject of experiment [1] is Human saphenous vein smooth muscles. Briefly: Muscle bath: human saphenous vein rings, contraction in response to serotonin. The conditions noted are these: peptide in 7.5% dextran gel; serotonin 1 uM. The procedure: Human saphenous vein was obtained from remnants that were discarded after vascular bypass operations. Rings of the saphenous vein were equilibrated in a muscle bath as described in experiment 4. The rings were treated with a 7.5% dextran gel alone, or a 7.5% dextran gel containing the phosphopeptide analogues of HSP20 (NH2-βAYARRAAARQARAWLRRAS*APLPGLK-COOH) (SEQ ID NO:307). The rings were then treated with serotonin (1 uM). The rings treated with the 7.5% dextran gel alone contracted in response to serotonin.

Experiment [2] concerns A10 cells. Put plainly: Scratch wound migration assay. The class given is cell-based. The settings on record: 50 μM; 10% FBS media; 24 hours. The procedure:
Confluent A10 cells were serum starved (0.5% fetal bovine serum, FBS) for 48 hours. A linear wound was made in the smooth muscle cell monolayer using a rubber scraper and the scratched edges were marked using metal pins.

The subject of the next experiment is porcine coronary artery. Put plainly: Muscle bath: serotonin pre-contracted rings of porcine coronary artery, endothelium not denuded. The settings on record: cumulative doses added every 10 minutes; n=5; FIG. 4. The procedure:
Rings of porcine coronary artery in which the endothelium was not denuded, were suspended in a muscle bath containing bicarbonate buffer (120 mM NaCl, 4.7 mM KCl, 1.0 mM MgSO4, 1.0 mM NaH2PO4, 10 mM glucose, 1.5 mM CaCl2, and 25 mM […], pH 7.4), equilibrated with 95% O2/5% CO2, at 37° C. at one gram of tension for 2 hours. The muscles were pre-contracted with serotonin ([…] for 10 minutes) and cumulative doses of PTD-pHSP20 (NH2-βAYARRAAARQARAWLRRAS*APLPGLK-COOH, closed circles) (SEQ ID NO:307) or PTD-scrambled-pHSP20 (NH2-βAYARRAAARQARAPRKS*LWALGRPLA-COOH open circles) (SEQ ID NO:308) were added every 10 minutes (FIG. 4). The percentage of relaxation is depicted as a percentage of the maximal serotonin contraction (n=5, *=p<0.05 compared to 0 peptide added). The concentrations of peptide used are depicted on the x axis. Representative rings were treated with peptides (1 mM final concentration) linked to FITC (15 minutes at 37° C.), fixed in 4% paraformaldehyde and examined under fluorescence microscopy (40× magnification).

Experiment [3] has as its system A10 cells. Briefly: Serum-induced proliferation, cell counts. The conditions noted are these: 50 μM in 10% FBS; 24 hours; serum starved 3 days beforehand. It counts as cell-based. The procedure:
A10 cells were serum starved for 3 days. The cells were then treated with media containing 10% fetal bovine serum, PTD-pHSP20 (NH2-βAYARRAAARQARAWLRRAS*APLPGLK-COOH (SEQ ID NO:307), or PTD-scrambled-pHSP20 (NH2-βAYARRAAARQARAPRKS*LWALGRPLA-COOH (SEQ ID NO:308) (50 μM). After 24 hours cell counts were performed. The number of cells per well in the serum starved plates averaged […] (+/−7.4) compared to 276+/−6.1 in wells containing 10% fetal bovine serum (FBS). In the presence of FBS, the phosphopeptide analogues of HSP20 containing a transduction domain inhibited of smooth muscle proliferation, 149+/−14.6 compared to transduction of the scrambled phosphopeptide analogue of HSP20 (242.3+/−15.3 cells/well). The results of these experiments are illustrated in FIG. 9.

In experiment [4] the test system is A10 cells. Briefly: Boyden chamber migration assay. It counts as cell-based.
Experiment [5] concerns corpra cavernosal smooth muscles. Briefly: Muscle bath: rabbit corpra cavernosal smooth muscle pre-contracted with norepinephrine. Also on record: species or system New Zealand White rabbits. The procedure:
(§1) Tracheal and corpra cavernosal smooth muscles were obtained from a New Zealand White rabbits after sacrifice. The muscles were equilibrated in a muscle bath as described in example 6. The tracheal muscles were pre-contracted with carbachol and the corpra cavernosal smooth muscles were pre-contracted with norepinephrine. The muscles were then treated with the PTD-phosphopeptide analogues of HSP20 (NH2-βAYARRAAARQARAWLRRAS*APLPGLK-COOH) (SEQ ID NO:307).

A further experiment concerns Tracheal smooth muscles. Put plainly: Muscle bath: rabbit tracheal smooth muscle pre-contracted with carbachol. Also on record: species or system New Zealand White rabbits. How it is done: as §1
In experiment [6] the test system is Intestinal smooth muscle from the tinea coli. Put plainly: Muscle bath: pig tinea coli, contractile response to carbachol. The conditions noted are these: peptide in a dextran gel, 1 mM final concentration; then treated with carbachol. The procedure: Intestinal smooth muscle was obtained from the tinea coli of a pig. These muscles were equilibrated in a muscle bath as described in example 6. The muscles produced transient contractions in response to high extracellular potassium chloride (KCl 110 mM) and in response to carbachol (10^−6 M). The muscles were then treated with a dextran gel containing the PTD-phosphopeptide analogues of HSP20 (NH2-βAYARRAAARQARAWLRRAS*APLPGLK-COOH, 1 mM final concentration) (SEQ ID NO:307) and treated with carbachol.

The test system of experiment [7] is Bovine aortic endothelial cells. Briefly: Focal adhesion disassembly, interference reflection microscopy. The settings on record: HSP20 peptides 10 uM for 30 minutes; serum starved one hour. The class given is cell-based. The procedure:
Bovine aortic endothelial cells were plated on glass coverslips (80K-100K cells) in DMEM plus 10% FBS over night (24 wells plate). The cells were serum starved (no serum) for one hour and incubated in the presence of the peptide analogues of HSP20 [NH2-βAYARRAAARQARAWLRRAS*APLPGLK-COOH-pHSP20 (10 uM) (SEQ ID NO:307) or scrambled analogues of HSP20 [NH2-βAYARRAAARQARAPRKS*LWALGRPLA-COOH-scHSP20 (10 uM)] (SEQ ID NO:308) for 30 minutes. The cells were fixed with 3% glutaraldehyde and the number of focal adhesions was detected with interference reflection microscopy. The Hep I peptide was used as a positive control. This peptide binds to the heparin binding site of thrombospondin in induces focal adhesion disassembly. […] The results are illustrated in FIG. 7.

Another experiment concerns human saphenous vein. Put plainly: Intimal hyperplasia in cultured human saphenous vein segments, morphometric intimal area. The conditions noted are these: 14 days; media with 30% fetal bovine serum; versus serum alone or scrambled analogue. How it is done: Segments of human saphenous vein were cultured in media containing 30% fetal bovine serum.
The subject of experiment [8] is internal anal sphincter smooth muscles. Put plainly: Muscle bath: human internal anal sphincter, tonic sustained contractions. The settings on record: 1 mM final concentration; after washout of sodium nitroprusside. From the text:
The internal anal sphincter was obtained from a human pathology specimen after an abdominal perineal resection for cancer. The smooth muscles were equilibrated in a muscle bath as described in example 6. The muscles developed tonic sustained contractions when warmed in the bicarbonate buffer. These contractions relaxed with the addition of the guanylate cyclase activator, sodium nitroprusside (SNP). When the sodium nitroprusside was washed out of the bath, the muscles again contracted spontaneously. The muscles were then treated with the PTD-phosphopeptide analogues of HSP20 (NH2-βAYARRAAARQARAWLRRAS*APLPGLK-COOH, 1 mM final concentration) (SEQ ID NO:307).

As for “NH2-βAYARRAAARQARAWLRRAS*APLPGLK-COOH (AYARRAAARQARAWLRRASAPLPGLK; HELM PEPTIDE1{[bAla].Y.A.R.R.A.A.A.R.Q.A.R.A.W.L.R.R.A.[O=C([C@H](COP(=O)(O)O)N[*:1])[*:2]].A.P.L.P.G.L.K}$$$$V2.0; SMILES CC(C)C[C@H](NC(=O)CNC(=O)[C@@H]1CCCN1C(=O)[C@H](CC(C)C)NC(=O)[C@@H]1CCCN1C(=O)[C@H](C)NC(=O)[C@H](COP(=O)(O)O)NC(=O)[C@H](C)NC(=O)[C@H](CCCNC(=N)N)NC(=O)[C@H](CCCNC(=N)N)NC(=O)[C@H](CC(C)C)NC(=O)[C@H](Cc1c[nH]c2ccccc12)NC(=O)[C@H](C)NC(=O)[C@H](CCCNC(=N)N)NC(=O)[C@H](C)NC(=O)[C@H](CCC(N)=O)NC(=O)[C@H](CCCNC(=N)N)NC(=O)[C@H](C)NC(=O)[C@H](C)NC(=O)[C@H](C)NC(=O)[C@H](CCCNC(=N)N)NC(=O)[C@H](CCCNC(=N)N)NC(=O)[C@H](C)NC(=O)[C@H](Cc1ccc(O)cc1)NC(=O)CCN)C(=O)N[C@@H](CCCCN)C(=O)O) [PTD-pHSP20, Phosphopeptide analogue of HSP20 with a protein transduction domain different from TAT]”, the “contraction in response to serotonin” value in experiment [1] is recorded as “did not contract”. In addition, the “number of cells migrating into a 1 cm^2 scratched area” value in the experiment with A10 cells [2] was “inhibition of migration”. Also, in the experiment on porcine coronary artery, the “relaxation as percentage of the maximal serotonin contraction” value was “relax and prevent spasm”. Also, in the experiment with A10 cells [3], the “number of cells per well” value is 149+/−14.6 cells/well. For the same substance, the “migration of A10 cells” value in the experiment with A10 cells [4] is recorded as “inhibition of migration”. Moreover, the “relaxation of pre-contracted muscle” value is “relaxed and spasm was prevented” in [5]; “relaxed and spasm was prevented” in the experiment on Tracheal smooth muscles. In [6], the “contractile response to carbachol” value is listed as “significantly attenuated”. In addition, the “focal adhesion disassembly (number of focal adhesions)” value in experiment [7] was “led to focal adhesion disassembly”. In addition, the intimal area entry in the experiment with human saphenous vein was “significant reduction in intimal area”. Moreover, the “relaxation of spontaneous tonic contraction” value in experiment [8] is “relaxed and spasm was prevented”.
